Where a name gives a salt, the structure may show the parent alone.
Assays:
[1] = system: retinal ganglion cells; test: Screening of test substances: protection of retinal ganglion cells from NMDA-induced apoptosis in wild-type and NF-κBp50-deficient mice; type: in vivo, mouse; conditions: 5 mM NMDA into vitreous; for effect of protecting retinal ganglion cells from NMDA-induced apoptosis (conclusion in words): wild-type and NF-κBp50-deficient mice, 24 hours
Protocol: (§1) Intravitreal NMDA injection was performed. 2 μl of 5 mM solution of NMDA in buffered saline solution (BSS) was injected into the vitreous of the left eye of each mouse aged 2 months. The right eyes were injected with BSS alone. At 24 hours and 4 days after injection, the eyes were enucleated and fixed in 4% paraformaldehyde in PB, followed by dehydration and paraffin embedding. Tranverse sections were made through the optic disc and stained with hematoxylin and eosin (H&E). Cells of 0.35 mm length at 0.3 mm from the edge of the optic disc in the ganglion cell layer were counted except for cells infiltrating the ganglion cell layer. The average number of cells per field was analyzed, and statistical differences were analyzed by the Student's t test.
By intraperitoneal administration, phosphate buffered saline (PBS) as control substance was respectively administered to wild-type mice and NF-κBp50-deficient mice once daily for 7 days. 5 mM of NMDA was directly administered into vitreous of the mice, and then the number of retinal ganglion cells after 24 hours was counted.
By intraperitoneal administration, 10 mg/kg of memantine hydrochloride, which is used as a curative medicine for Alzheimer type dementia and is an antagonist of NMDA receptor as one of glutamic acid receptor, was respectively administered to wild-type mice and […] mice once daily for 7 days. 5 mM of NMDA was directly administered into vitreous of the mice, and then the number of retinal ganglion cells after 24 hours were counted.
100 mg/kg of lomerizine hydrochloride, which is used as a curative medicine for migraine and is a piperazine-type calcium inhibitor, was respectively administered orally via catheters to wild-type mice and NF-κBp50-deficient mice once daily for 7 days. 5 mM of NMDA was directly administered into vitreous thereof, and then the number of retinal ganglion cells after 24 hours was numerated.
By intraperitoneal administration, 10 mg/kg of MK-801, which is NMDA receptor antagonist and is (5S,10R)-[…]-5-methyl-10,11-dihydro-5H-dibenzo[a,d]-cyclo-hepten-5,10-imine hydrogen maleate, was respectively administered to wild-type mice and NF-κBp50-deficient mice once daily for 7 days. 5 mM of NMDA was directly administered into vitreous thereof, and then the number of retinal ganglion cells after 24 hours was counted.
A control group was kept alike with administration for 2 weeks instead of administration of PBS for 7 days under above-mentioned control group. On the other hand, 3 mg/kg of […] was respectively administered to wild-type mice and NF-κBp50-deficient mice once daily for 2 weeks by intraperitoneal administration. 5 mM of NMDA was directly administered into vitreous thereof, and then the number of retinal ganglion cells after 24 hours was counted.

[2] = system: retinal ganglion cells; test: Susceptibility of NMDA-induced neurotoxicity (intravitreal NMDA, count of live ganglion cells) in wild-type and NF-κBp50-deficient mice; type: in vivo, mouse; conditions: for cell death in GCL (ganglion cell layer): 2 months old, 10 nmol NMDA intravitreal, 24 hours, FIG. 5
Protocol: as §1
Since NMDA receptor-mediated excitotoxicity has been reported to contribute to glaucomatous neuropathy and the NMDA receptor-mediated […] leads apoptosis of the neurons, the effect of NF-κBp50 on NMDA-induced neurotoxicity was examined. NMDA has excitotoxicity at a high concentration of 100 nmol which promptly leads cell death. The results of histological examination of the retinas at 24 hours after intravitreal injection of 10 nmol NMDA, which is a relatively low concentration as for NMDA-induced neurotoxicity, are shown in FIG. 5.
The live cells were counted in length of 0.35 mm at 0.3 mm each from the edge of the optic disc. Bar graphs show the number of cells in GCL at time before and 24 hours after NMDA-treatment. The average number of cells per field was analyzed by the two-tailed t-test. Statistical differences were analyzed by the Student's t test. Data are mean±SEM (n=6 to 7 mice). *1p<0.01 versus wild-type mice. *2p<0.01 versus wild-type mice.
[…] of NMDA were directly administered into vitreous respectively, and then the number of live ganglion cells was counted. As a control, the number of live ganglion cells without administration of NMDA was also counted. […] On the other hand, in the case of wild-type mice and NF-κBp50-deficient mice with injection of […] NMDA, which is a relatively low concentration, while almost all of the ganglion cells in wild-type mice survived at 4 days after NMDA treatment, about 60% of the ganglion cells in NF-κBp50-deficient mice were dead within 24 hours by apoptosis and moreover almost all of them were dead within 96 hours.

[3] = wild-type mice and NF-κBp50-deficient mice, injection of 50 mM NMDA into vitreous, FIG. 6

COc1ccc(CN2CCN(C(c3ccc(F)cc3)c3ccc(F)cc3)CC2)c(OC)c1OC [lomerizine hydrochloride]
retinal ganglion cells dead by apoptosis within 24 hours after administration of NMDA ([1]; NF-κBp50-deficient mice, 100 mg/kg orally via catheters once daily for 7 days, FIG. 7c): no more than 28% | retinal ganglion cells dead by apoptosis within 24 hours after administration of NMDA ([1]; wild-type mice, 100 mg/kg orally via catheters once daily for 7 days, FIG. 7c): about 2%

C=CC[C@@H]1/C=C(\C)C[C@H](C)C[C@H](OC)[C@H]2O[C@@](O)(C(=O)C(=O)N3CCCC[C@H]3C(=O)O[C@H](/C(C)=C/[C@@H]3CC[C@@H](O)[C@H](OC)C3)[C@H](C)[C@@H](O)CC1=O)[C@H](C)C[C@@H]2OC [KF506]
retinal ganglion cells dead by apoptosis within 24 hours after administration of NMDA ([1]; NF-κBp50-deficient mice, 3 mg/kg intraperitoneal once daily for 2 weeks, FIG. 7f): no more than 34% | retinal ganglion cells dead by apoptosis within 24 hours after administration of NMDA ([1]; wild-type mice, 3 mg/kg intraperitoneal once daily for 2 weeks, FIG. 7f): about 5%

C[C@]12N[C@H](Cc3ccccc31)c1ccccc12 [MK-801, (5S,10R)-(−)-5-methyl-10,11-dihydro-5H-dibenzo[a,d]-cyclo-hepten-5,10-imine hydrogen maleate]
retinal ganglion cells dead by apoptosis within 24 hours after administration of NMDA ([1]; NF-κBp50-deficient mice, 10 mg/kg intraperitoneal once daily for 7 days, FIG. 7d): no more than 9% | effect of protecting retinal ganglion cells from NMDA-induced apoptosis (conclusion in words) [1]: had pharmacological effects of protecting retinal ganglion cells from NMDA-induced apoptosis | retinal ganglion cells dead by apoptosis within 24 hours after administration of NMDA ([1]; wild-type mice, 10 mg/kg intraperitoneal once daily for 7 days, FIG. 7d): about 2%

CN[C@H](CC(=O)O)C(=O)O [NMDA, N-methyl D aspartate]
cell death in GCL (ganglion cell layer) ([2]; NF-κBp50-deficient mice): markedly induced cell death in GCL | ganglion cells dead within 96 hours ([2]; NF-κBp50-deficient mice, injection of 5 nM NMDA into vitreous, FIG. 6): almost all | ganglion cells dead within 24 hours by apoptosis ([2]; NF-κBp50-deficient mice, injection of 5 mM NMDA into vitreous, FIG. 6): about 60% | ganglion cells dead by apoptosis within 24 hours after NMDA treatment [2, 3]: about half | ganglion cells dead by apoptosis within 96 hours (4 days) [2, 3]: almost all | cell death in GCL (ganglion cell layer) ([2]; wild-type mice): no significance was observed | ganglion cells survived at 4 days after NMDA treatment ([2]; wild-type mice, injection of 5 mM NMDA into vitreous, FIG. 6): almost all

CC12CC3CC(C)(C1)CC(N)(C3)C2 [memantine hydrochloride]
retinal ganglion cells dead by apoptosis within 24 hours after administration of NMDA ([1]; NF-κBp50-deficient mice, 10 mg/kg intraperitoneal once daily for 7 days, FIG. 7b): about 15% | effect of protecting retinal ganglion cells from NMDA-induced apoptosis (conclusion in words) [1]: had pharmacological effects of protecting retinal ganglion cells from NMDA-induced apoptosis | retinal ganglion cells dead by apoptosis within 24 hours after administration of NMDA ([1]; wild-type mice, 10 mg/kg intraperitoneal once daily for 7 days, FIG. 7b): about 3%

Reference: US8367887B2, “Normal-tension glaucoma model and method for evaluation of test substances by using same” (Shinshu University, priority 2007, dated 2013)
